Legend:
h5HT2B = h5HT2B (Homo sapiens (Human), UniProt P41595); experiment: h5HT2B binding
rat 5-HT7 receptor = rat 5-HT7 receptor (Rattus norvegicus (Rat), UniProt P32305); experiment: r5-HT7 binding assay, competitive radioligand binding with [3H]5-CT; conditions: rat 5-HT7, HEK-293 membranes
Procedure, shortened: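 For antagonism, cells expressing the rat receptor are pretreated with compound (10 min) and stimulated with 100 nM 5-CT (20 min). Lysates are assayed for cAMP by competitive immunoassay. Binding uses [3H]5-CT competition on HEK-293 membranes, giving Ki.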

h5HT2A = h5HT2A (Homo sapiens (Human), UniProt P28223); experiment: h5HT2A binding
human SERT = human SERT (Homo sapiens (Human), UniProt P31645); experiment: human SERT binding assay with [3H]-citalopram on HEK-293 membranes; conditions: read-out: hSERT binding Ki
h5HT2C = h5HT2C (Homo sapiens (Human), UniProt P28335); experiment: h5HT2C binding
Chain of h5HT2C (P28335 33-458): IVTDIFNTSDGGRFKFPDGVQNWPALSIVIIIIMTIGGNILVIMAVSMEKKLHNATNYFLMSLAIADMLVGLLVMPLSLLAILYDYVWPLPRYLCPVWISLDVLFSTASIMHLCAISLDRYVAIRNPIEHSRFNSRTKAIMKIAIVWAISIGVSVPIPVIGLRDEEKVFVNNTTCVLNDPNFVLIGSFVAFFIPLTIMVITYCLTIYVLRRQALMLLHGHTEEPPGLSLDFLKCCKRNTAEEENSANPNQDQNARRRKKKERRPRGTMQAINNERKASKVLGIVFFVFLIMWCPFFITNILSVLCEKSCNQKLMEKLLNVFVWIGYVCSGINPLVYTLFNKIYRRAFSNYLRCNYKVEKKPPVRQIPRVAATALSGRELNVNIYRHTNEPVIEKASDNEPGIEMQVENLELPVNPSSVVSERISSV

Chain of h5HT2B (P41595 whole entry): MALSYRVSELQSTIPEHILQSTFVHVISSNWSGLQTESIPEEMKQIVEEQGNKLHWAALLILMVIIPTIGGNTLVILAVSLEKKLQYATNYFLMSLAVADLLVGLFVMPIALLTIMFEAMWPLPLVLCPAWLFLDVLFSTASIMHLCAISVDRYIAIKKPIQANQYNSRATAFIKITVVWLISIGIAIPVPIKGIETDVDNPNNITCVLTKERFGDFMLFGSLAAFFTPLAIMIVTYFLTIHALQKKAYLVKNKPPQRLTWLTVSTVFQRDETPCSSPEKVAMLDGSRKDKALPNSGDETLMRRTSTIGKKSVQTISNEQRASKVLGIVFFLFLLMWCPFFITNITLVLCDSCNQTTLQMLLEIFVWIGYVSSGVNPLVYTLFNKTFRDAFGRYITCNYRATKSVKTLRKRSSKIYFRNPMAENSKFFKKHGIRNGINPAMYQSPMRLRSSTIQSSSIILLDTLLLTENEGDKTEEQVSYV
Chain of rat 5-HT7 receptor (P32305 1-435): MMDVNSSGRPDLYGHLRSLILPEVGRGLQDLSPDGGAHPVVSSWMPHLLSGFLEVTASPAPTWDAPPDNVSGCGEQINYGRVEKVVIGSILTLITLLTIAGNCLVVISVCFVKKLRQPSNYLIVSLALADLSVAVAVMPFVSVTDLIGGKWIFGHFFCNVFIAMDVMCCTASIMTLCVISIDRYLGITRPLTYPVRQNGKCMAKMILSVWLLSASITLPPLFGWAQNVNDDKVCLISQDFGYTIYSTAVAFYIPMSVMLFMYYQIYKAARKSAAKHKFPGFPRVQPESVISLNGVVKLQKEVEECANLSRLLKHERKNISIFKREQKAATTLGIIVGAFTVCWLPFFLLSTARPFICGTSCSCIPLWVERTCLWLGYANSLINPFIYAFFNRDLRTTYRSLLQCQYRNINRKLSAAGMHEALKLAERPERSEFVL
Chain of h5HT2A (P28223 whole entry): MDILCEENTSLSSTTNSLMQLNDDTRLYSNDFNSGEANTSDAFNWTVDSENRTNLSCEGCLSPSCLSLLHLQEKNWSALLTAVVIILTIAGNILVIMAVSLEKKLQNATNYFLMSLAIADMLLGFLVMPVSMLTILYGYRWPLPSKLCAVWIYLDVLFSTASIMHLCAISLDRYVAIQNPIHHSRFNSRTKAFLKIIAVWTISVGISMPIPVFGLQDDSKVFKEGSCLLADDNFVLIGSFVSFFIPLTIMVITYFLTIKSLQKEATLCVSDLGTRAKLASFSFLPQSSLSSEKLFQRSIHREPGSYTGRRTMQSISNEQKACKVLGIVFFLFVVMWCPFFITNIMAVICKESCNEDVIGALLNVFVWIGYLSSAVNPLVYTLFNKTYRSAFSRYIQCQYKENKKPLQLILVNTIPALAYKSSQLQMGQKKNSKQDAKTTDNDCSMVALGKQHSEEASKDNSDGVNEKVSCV
Chain of human SERT (P31645 whole entry): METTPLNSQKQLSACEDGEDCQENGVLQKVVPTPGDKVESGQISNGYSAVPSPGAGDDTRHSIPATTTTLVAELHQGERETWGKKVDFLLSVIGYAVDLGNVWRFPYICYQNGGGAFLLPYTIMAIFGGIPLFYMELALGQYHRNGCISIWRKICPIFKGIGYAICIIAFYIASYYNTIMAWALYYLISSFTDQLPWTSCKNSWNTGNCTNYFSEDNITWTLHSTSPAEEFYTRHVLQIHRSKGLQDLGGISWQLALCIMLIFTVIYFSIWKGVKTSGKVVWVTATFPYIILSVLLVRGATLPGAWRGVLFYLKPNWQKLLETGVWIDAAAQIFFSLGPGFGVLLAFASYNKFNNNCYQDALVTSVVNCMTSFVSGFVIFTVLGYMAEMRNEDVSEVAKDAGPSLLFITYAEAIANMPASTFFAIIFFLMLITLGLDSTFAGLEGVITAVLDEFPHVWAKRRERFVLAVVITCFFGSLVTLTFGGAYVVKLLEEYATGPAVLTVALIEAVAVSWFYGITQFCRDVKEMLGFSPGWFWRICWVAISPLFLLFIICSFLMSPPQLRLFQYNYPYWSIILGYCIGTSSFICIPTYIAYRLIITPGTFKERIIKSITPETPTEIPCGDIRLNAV

| Structure (SMILES) | Ki (h5HT2B) | Ki (rat 5-HT7 receptor) | Ki (h5HT2A) | Ki (human SERT) | Ki (h5HT2C) |
| --- | --- | --- | --- | --- | --- |
| CC1(Oc2cc(Br)ccc2OCCc2ccccc2)CNC1 [Example 215, 3-(5-Bromo-2-phenethyloxy-phenoxy)-3-methyl-azetidine] | 17 nM | 11 nM | 6 nM | 44 nM | 26 nM |
| Fc1ccc(Oc2cc(Cl)ccc2O[C@H]2CCNC2)cc1 [Example 269, (S)-3-[4-Chloro-2-(4-fluoro-phenoxy)-phenoxy]-pyrrolidine] | 500 nM | > 10000 nM | 190 nM |  | 400 nM |
| Cc1ccccc1Oc1cc(Cl)ccc1O[C@H]1CCNC1 [Example 272, (S)-3-(4-Chloro-2-o-tolyloxy-phenoxy)-pyrrolidine] | 310 nM | > 10000 nM | 220 nM |  | 330 nM |
